{"source": "patent US12673039B2", "about": "“Methods of inducing autophagy using coumarin derivatives and related compounds” (Buck Institute for Research on Aging, priority 2019, dated 2026)", "key": {"human TFEB promoter": {"test_system": "human TFEB promoter", "assay": "TFEB promoter secreted-luciferase assay in rat N27 neuronal cells", "type": "cell-based", "conditions": "24 hour treatment, versus DMSO-control (FIG. 18, panel A)", "protocol": "FIG. 18, panels A-F: AIC106 (Autophagy Inducing Coumarin-106) induces transcription of TFEB and its targets in vitro in rat N27 neuronal cells and in vivo in C. elegans. Panel A) Relative fold change in TFEB promoter activity compared to DMSO-control was determined by quantifying luciferase activity in supernatants collected from rat N27 neuronal cells post-24 hour treatment with C1 (AIC106), D1 and D2. [n=3 independent experiments (mean±SEM), **p<0.01, by one-way ANOVA with Dunnett's multiple comparisons test]. Panel B) Chemical structure of AIC106 and its structural derivative D1 and D2. Panel C) Relative fold change in mRNA of tfeb and its targets compared to DMSO-control were quantified using qRT-PCR in N27 neuronal cells post-24 hour treatment with AIC106 [N=3 independent experiments (mean±SD). *p<0.05, **p<0.01 and ****p<0.0001, by two-way ANOVA with Sidak's multiple comparisons test]. Panel D) Changes in HLH-30 expression were measured by quantifying GFP intensity in an individual GFP-tagged HLH-30 strain (MAH235) post-24 hours treatment with AIC106 and DMSO-control. […] Panel E) HLH-30; GFP (MAH235) were monitored by fluorescence microscopy. Panel F) Relative fold change in mRNA of hlh-30 and its targets compared to DMSO-control were quantified using qRT-PCR in young adult wild type N2 worms post-24 hours treatment with AIC106. […]"}, "C. elegans": {"test_system": "C. elegans", "assay": "Mitophagy and mitochondrial function in C. elegans", "type": "in vivo", "excerpt": "FIGS. 13A-13B illustrate that coumarin 106 (“C1”, “AIC106”) promotes increased indices of mitophagy. FIG. 13A) Representative images and GFP quantification of mitochondrial content at day-5 adult worms (pges-1mtGFP; bottom) of mito::GFP reporter strains (GFP tagged to mitochondrial localizing signals) treated with C1 or DMSO control. FIG. 13B) Visualizing mitochondrial fission using mito::GFP (pmyo-3mtGFP) reporter strain. Representative GFP image shown in upper panel. Representative images (lower panel) showing mitochondrial fission after 48 hrs of C1 or control treatment (63× oil). Images converted to black & white format using NIH ImageJ software for quantification of fragmented mitochondria, denoted as white puncta here.\nFIGS. 14A-14B illustrate that coumarin 106 (“C1”, “AIC106”) results in increases in mitochondrial function. FIG. 14A) Basal and maximal respiration measured in live worms in the Seahorse following addition of C1 (50, 200 μM). Values are reported as oxygen consumption rate (OCR, pmol/min/mg protein)+/− FCCP addition; *p<0.05; **p<0.01. FIG. 14B) Sensitivity to treatment for with increasing concentrations of the mitochondrial uncoupler FCCP in the absence and presence of C1 (20, 50 μM; 1 hr). Values are reported as % of live worms per plate, *p<0.01 versus FCCP alone.\nFIG. 20, panels A-H: AIC106 treatment improves mitochondrial health. Panel A) Changes in mitochondrial membrane potential were determined by quantifying fluorescence intensity of individual TMRM stained wild type N2 worms post-24 hours treatment with AIC106 and DMSO-control. [N=3 independent experiments (mean±SD). ****p<0.0001, by unpaired t-test]. Panel B) TMRM stained wild type N2 worms were monitored by fluorescence microscopy. Panel C) Mitophagy flux upon AIC106 treatment was determined in DLM14 young adult worms (TOMM-7 tagged to a peptide linked dual-Fluorescent GFP) by quantifying relative fold changes in ratio of monomeric-fluorescent protein (mFP) to dual-fluorescent protein (dFP) compared to DMSO-control. Panel D) Ability of AIC106 to rescue mitochondrial toxin (FCCP) sensitivity was determined as percent survival of 24 hours treated AIC106 and DMSO-control wild type N2 worms. [N=3 independent experiments (mean±SD). ****p<0.0001, by two-way ANOVA with Sidak's multiple comparisons test]. Panel E) Ability of AIC106 to rescue enhanced mitochondrial toxin (FCCP, 20 μM) sensitivity in mitophagy deficient parkin/pdr-1 mutant was determined as percent survival of 24 hours treated AIC106 and DMSO-control pdr-1(tm598) and pdr-1(tm598); hlh-30(tm1978) mutant. [N=3 independent experiments (mean±SD). *p<0.05, by two-way ANOVA with Sidak's multiple comparisons test]. Panel F) Effect of AIC106 on mitochondrial biogenesis was determined by quantifying GFP fluorescence intensity in an individual SJ4143 worm (GFP targeted in mitochondria of intestinal cells) post-72 hours of treatment with AIC106 and DMSO-control. [N=3 independent experiments (mean±SD). ****p<0.0001, by unpaired t-test]. Panel G) SJ4143 worms were monitored by fluorescence microscopy. Panel H) Effects of AIC106 on basal (B) and maximum (M) mitochondrial respiration rate were determined by quantifying oxygen consumption rate (OCR) in wild type N2 and hlh-30(tm1978) mutant strain post-24 hours of treatment with AIC106 and DMSO-control. [N=3 independent experiments (mean±SD). *p<0.05, ***p<0.001 and ****p<0.0001, by one-way ANOVA with Tukey's multiple comparisons test].\nFIG. 27, panels A-C: AIC106 induces mitophagy and increases lifespan. Panel A) Relative fold change in mRNA of key mitophagy genes including dct-1, pink-1 and pdr-1 was quantified by qRT-PCR after DMSO-control and AIC106 24 hours treatment in young adult N2 and hlh-30(tm1978) mutants. [N=3 independent experiments (mean±SD). **p<0.01 and ****p<0.0001, by two-way ANOVA with Sidak's multiple comparisons test]. […]"}}}
{"smiles": "O=c1oc2c3c4c(cc2c2c1CCC2)CCCN4CCC3", "note": "[C1, 2,3,6,7,10,11-Hexahydro-1H,5H-cyclopenta(3,4)(1)benzopyrano(6,7,8-ij)quinolizin-12(9H)-one]", "values": [{"measurement": "luciferase transcription (TFEB promoter activity)", "setting": "human TFEB promoter", "result": "6-7 fold"}, {"measurement": "mitophagy flux (mFP)", "setting": "C. elegans; DLM14 worms (FIG. 20, panel C)", "result": "increased mFP expression"}, {"measurement": "mitophagy", "setting": "C. elegans; FIG. 13", "result": "elevated mitophagy"}, {"measurement": "mitochondrial health", "setting": "C. elegans; FIG. 14", "result": "improvement in mitochondrial health"}, {"measurement": "mRNA of mitophagy specific genes", "setting": "C. elegans; N2, hlh-30 dependent (FIG. 27, panel A)", "result": "elevated mRNA abundance of key mitophagy specific genes including dct-1 and pink-1"}, {"measurement": "mitochondrial membrane potential (TMRM fluorescence)", "setting": "C. elegans; N2 worms, 24 hours", "result": "significant decrease in the MMP"}, {"measurement": "mitochondrial content (GFP)", "setting": "C. elegans; SJ4143 worms, 72 hours", "result": "increased mitochondrial content"}, {"measurement": "maximum respiration capacity (OCR)", "setting": "C. elegans; hlh-30 mutant worms", "result": "failed to show any increase in the maximum respiration capacity"}, {"measurement": "maximum respiration capacity (OCR)", "setting": "C. elegans; wild type N2, 24 hours", "result": "increase maximum respiration capacity"}]}
